Measured values from PubChem BioAssay (NCI).
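Briefly, cells in 96-well plates were exposed to five compound concentrations for 48 h, and endpoints were estimated by linear interpolation. The concentration for full growth arrest is given as TGI.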

What was measured:
Test in all cases: DTP human tumour cell line panel, 48 h
A549 NSCLC = test system: A549 NSCLC
ACHN renal = test system: ACHN renal
CAKI-1 renal = test system: CAKI-1 renal
HCT-116 colon = test system: HCT-116 colon
HCT-15 colon = test system: HCT-15 colon
HT29 colon = test system: HT29 colon
MDA-MB-231 breast = test system: MDA-MB-231 breast
MDA-MB-435 = test system: MDA-MB-435
MDA-N = test system: MDA-N
OVCAR-8 ovarian = test system: OVCAR-8 ovarian
PC-3 prostate = test system: PC-3 prostate
RXF 393 renal = test system: RXF 393 renal
SF-295 CNS = test system: SF-295 CNS
SF-539 CNS = test system: SF-539 CNS
SK-MEL-2 melanoma = test system: SK-MEL-2 melanoma
SK-MEL-28 melanoma = test system: SK-MEL-28 melanoma
SK-OV-3 ovarian = test system: SK-OV-3 ovarian
SN12C renal = test system: SN12C renal
SNB-19 CNS = test system: SNB-19 CNS
UO-31 renal = test system: UO-31 renal

Compound | TGI (A549 NSCLC) [µM] | TGI (ACHN renal) [µM] | TGI (CAKI-1 renal) [µM] | TGI (HCT-116 colon) [µM] | TGI (HCT-15 colon) [µM] | TGI (HT29 colon) [µM] | TGI (MDA-MB-231 breast) [µM] | TGI (MDA-MB-435) [µM] | TGI (MDA-N) [µM] | TGI (OVCAR-8 ovarian) [µM] | TGI (PC-3 prostate) [µM] | TGI (RXF 393 renal) [µM] | TGI (SF-295 CNS) [µM] | TGI (SF-539 CNS) [µM] | TGI (SK-MEL-2 melanoma) [µM] | TGI (SK-MEL-28 melanoma) [µM] | TGI (SK-OV-3 ovarian) [µM] | TGI (SN12C renal) [µM] | TGI (SNB-19 CNS) [µM] | TGI (UO-31 renal) [µM]
CCN(CC)/[N+]([O-])=N/OCOC | > 100 | > 100 | > 100 | > 100 | > 100 | > 100 | > 100 | > 100 | > 100 | > 100 | > 100 | > 100 | > 100 | > 100 | > 100 | > 100 | > 100 | > 100 | > 100 | > 100
CC1CC(=NC2CCCCC2)Nc2ccccc2N1Cc1ccccc1 (stereo unspecified) | 16.5 | 22.8 | 19.2 | > 35.6 | 19.1 | 12.5 | 17 | 13.4 | 12.5 | 19.8 | 18.3 | 10.5 | 19.4 | 22.5 | 24.9 | 17.7 | 23.4 | 22.1 | 24.2 | 13.3
CSc1ncc2c(C#N)c3[nH]c4ccccc4n3c(=O)c2n1 | – | > 100 | 78.4 | 57.5 | 76.4 | – | > 100 | 67 | > 100 | 98.8 | 48.7 | 95.5 | > 100 | > 100 | 33 | – | > 100 | > 100 | > 100 | > 100
COc1ccc2cc(CN3CCC(C4CCN(Cc5ccc6cc(OC)ccc6c5)CC4)CC3)ccc2c1 | > 100 | 21.7 | 8.42 | 10.6 | 3.04 | 6.64 | 9.97 | 3.58 | 4.06 | 19.4 | 48.7 | 11.8 | 7.57 | > 100 | 12.7 | 4.75 | > 72.8 | 24 | 16.6 | 9.78
C=CCSC1=N/C(=C\c2ccc(OC)cc2)C(=O)N1CC=C | > 100 | > 100 | > 100 | > 100 | > 100 | > 100 | > 100 | > 100 | 59.8 | > 100 | 80.1 | 50.1 | > 100 | > 100 | 91.5 | > 100 | > 100 | 62.2 | > 100 | > 100
N#Cc1c(N)nc(SCc2ccccc2)c(C#N)c1-c1ccc(O)cc1 | 48.7 | 28.9 | 28.5 | 25.1 | 30.4 | 23.1 | 28.5 | 25.7 | 27.5 | 30.7 | 33.6 | 45.1 | 32.3 | 57.5 | 35.5 | 33 | 31.4 | 33.4 | 41.6 | 3.9
COC1(OC)N=C(N)C2(C#N)C(C)=C3NCN(C)N=C3C12C#N (stereo unspecified) | > 100 | > 100 | > 100 | > 100 | > 100 | > 100 | > 100 | > 100 | > 100 | > 100 | > 100 | > 100 | > 100 | > 100 | > 100 | > 100 | > 100 | > 100 | > 100 | > 100
Cc1cc2c(nn1)CCc1c-2no[n+]1[O-] | > 100 | > 100 | > 100 | > 100 | > 100 | > 100 | > 100 | > 100 | > 100 | > 100 | > 100 | > 100 | > 100 | > 100 | > 100 | > 100 | > 100 | > 100 | > 100 | > 100
COc1ccc(-c2c(-c3ccccc3)c(C)nc3[nH]c(=S)[nH]c(=S)c23)cc1OC | > 100 | > 100 | > 100 | 64.9 | > 100 | > 100 | > 100 | 74.1 | > 100 | > 100 | > 100 | > 100 | > 100 | 50.8 | 48.1 | 52.8 | > 100 | 83.3 | > 100 | 68.4
O=C(OCc1ccccc1)c1ccc(NCc2cc(O)ccc2O)cc1 | 20.5 | 2.77 | 1.79 | 3.02 | 2.42 | 20.3 | 6.08 | 3.9 | 4.6 | 2.75 | 2.73 | 2.4 | 17.1 | 2.27 | 5.23 | 3 | 11.2 | 2.78 | 10.8 | 2.61
Cc1c(NC(=O)CSC(=S)N(C)C)c(=O)n(-c2ccccc2)n1C | > 100 | > 100 | > 100 | > 100 | > 100 | > 100 | > 100 | > 100 | > 100 | > 100 | > 100 | > 100 | > 100 | > 100 | > 100 | > 100 | > 100 | > 100 | > 100 | > 100
CNC(=O)CCCNC(=O)CCCCC(=O)N(C)C | > 100 | > 100 | > 100 | > 100 | – | > 100 | > 100 | > 100 | > 100 | > 100 | > 100 | > 100 | > 100 | > 100 | > 100 | > 100 | > 100 | > 100 | > 100 | > 100
